According to US20200384188A1, “SYSTEMS, DEVICES, FORMULATIONS AND METHODS FOR CONTROLLED DRUG DELIVERY” (priority 2017, published 2020):
Several values for one entry are separate records, joined by “and”; a condition that tells them apart may be missing. Equal values may be shown once.

Assays:
[1] = test system: rats (Group 1 Sprague-Dawley, Group 4 Han Wister); assay: Randall-Selitto test (Brewers Yeast-inflamed hind paw, analgesy meter); assay type: in vivo, rat; settings: Group 4
Source text: The Randall Selitto test is a tool to assess the response thresholds to mechanical pressure stimulation following induction of a hyperalgesic state by injection of an inflammatory agent and is considered a measure of mechanical hyperalgesia (Randall and Selitto, 1957). This involves application of an increasing force to the surface of the paw until withdrawal or vocalization occurs. The test can produce results similar to decreases on pressure pain thresholds observed in clinical conditions, such as fibromyalgia, myofascial pain, or osteoarthritis (Arendt-Nielsen et al., 2010; Bennett, 2007; Finan et al., 2013; Hsu et al., 2010). Centrally and peripherally acting effects can be detected using this model, for example, opioids increase the mechanical threshold to the normal and inflamed paw, whereas nonsteroidal anti-inflammatory drugs are only effective in the inflamed paw.
(§1) Eighteen male Sprague-Dawley rats were obtained from Charles River, Margate, United Kingdom, and were used for dosing. Animals weighed between 319 and 419 g on the day of dosing. Eight male Han Wister rats were obtained from Charles River, Margate, United Kingdom and used for Group 4. Animals weighed between 381 and 504 g on the day of dosing. The animals were assessed according to Table 1.
(§2) Animals were dosed subcutaneously via a motorized insulin pump.
The threshold of a pain response to increasing pressure was measured using an analgesy meter (Ugo Basile, Italy). The animal was gently held by a competent operator, and the hind paw of the animal was positioned over a convex surface (a cone-shaped pusher). A gradually increasing pressure (g) was applied to the upper surface of the paw. The force was continuously monitored by a pointer moving along a linear scale and was stopped by depression of a foot pedal when the animal struggled. A cut-off value of 300 g was adopted (based on available literature and experience).
Pre-dose Phase: The pressure pain threshold of each animal was tested on two occasions (once in the morning and once in the afternoon). This allowed animals to acclimate to the procedure.
(§3) Day of Dosing: On the day of dosing, each animal was administered a 0.1 mL 20% suspension of Brewers Yeast subcutaneously into the sub-plantar of the right hind paw at approximately 180 minutes prior to ketamine administration. Immediately prior to ketamine administration (Group 4), 15 and 30 minutes and 1, 2, and 4 hours post administration of ketamine, each animal was assessed for a response to increasing pressure on both hind paws (Group 1 used right hind paw, Group 4 used both hind paws), using the analgesy meter. Signs of anesthesia were recorded.

rats [2] = assay: Signs of anesthesia recorded during the rat pain tests; assay type: in vivo; settings: 50 mg/kg sc via insulin pump
Experimental: Signs of anesthesia were recorded.
as §3

rats [3] = settings: 50 mg/kg; cited from earlier work
male Sprague-Dawley rats [4] = assay: Writhing test (acetic acid-induced abdominal spasm); assay type: in vivo, rat
Experimental: In the abdominal spasm (acetic acid-induced writhing) test, acetic acid is injected into the peritoneal cavity where it directly activates nociceptors and results in an abdominal writhing response. This writhing response is characterized by contraction of abdominal muscles followed by an extension of the hind limbs (Collier et al., 1968). This pain-behavior is considered reflexive and evidence of visceral pain associated with visceral chemoreceptors (Hammond, 1989). […] It is widely accepted that this model can be used as a screening method to determine the effects of drugs on inflammatory induced nociception (Vogel et al., 1997; Chiba et al., 2008). Although it can be used as a screening tool, it is unclear as to which clinical conditions the use of a chemical irritant represents (Gregory et al., 2013).
as §1, §2
At 1 hour post administration of ketamine, each animal was administered a 1 mL intraperitoneal injection of 1% acetic acid. Animals were immediately placed into individual observation chambers, and the number of abdominal spasms elicited over the subsequent 25-minute period was recorded.
Comparisons were made to background data.

Gottingen Minipigs = assay: Minipig animal observations and necropsy; assay type: in vivo, Gottingen Minipig; settings: Animals S0001 and S0004, Group 1 males
Source text: All animals appeared healthy prior to dosing and throughout the duration of the study, with the following observations noted.

[5] = Minipig pharmacokinetics study (BB-1802), single subcutaneous infusion via insulin pump, plasma LC-MS/MS; settings: for half-life / Tmax: Gottingen, minipig, plasma, sc; for Tmax: mean Tmax
Experimental: The purpose of this study was to determine the pharmacokinetics of ketamine after a single subcutaneous infusion dose to minipigs.
Dose Administration: In each phase, animals received a single subcutaneous infusion (up to 18 hours) via insulin pump (Medtronic MiniMed Paradigm® Insulin Pump). The infusion pump was programmed in accordance with a Study Specific Procedure, and the infusion was continuously monitored for the duration of the dose. […] The pump was inspected, re-secured to the animal, and the dose continued.
For each phase, blood (approximately 2 mL) was collected via jugular vein catheter into tubes containing K3EDTA from each animal predose and at approximately 0.083, 0.25, 0.5, 1, 2, 4, 8, 9 (Phases 1 through 3 only), 10 (Phases lthrough 3 only), 12, 15 (Phases 4 and 5 only), 18 (Phases 4 and 5 only), 20 (Phases 4 and 5 only), 22 (Phases 4 and 5 only), and 24 hours postdose, with the following exceptions in Phase 3 for Animal 50004 (Group 1 male). […] Times were based on the start of the infusion.
Plasma samples were analyzed for concentrations of ketamine using an established liquid chromatography/mass spectrometry (LC-MS/MS) method.
Noncompartmental analysis (1) was applied to the individual plasma ketamine concentration data for males and females. The following parameters were estimated whenever possible:
Nominal doses and sampling times were used. […] Embedded zeros were excluded from pharmacokinetic analysis.

male Sprague-Dawley rats [6] = settings: rat, in vivo

For `CNC1(c2ccccc2Cl)CCCCC1=O` (stereo not drawn) [ketamine], which “% change from baseline, force on inflamed (right) paw” value ([1]; 50 mg/kg sc, 4 h) is on record?
Its value is 38.45%.

What about the “% change from baseline, force on untreated (left) paw” value ([1]; 50 mg/kg sc, 4 h) of the same molecule?
Its value is 14.9%.

What about the “Force (g) applied, Left paw, individual animals” value ([1]; 50 mg/kg sc, 4 h, 50 mg/kg) of the same molecule?
The value was 130 g (2×) and 110 g (3×) and 220 g and 90 g and 180 g.

What about the “Force (g) applied, Right Paw (inflamed), individual animals” value ([1]; 50 mg/kg sc, 4 h, 50 mg/kg) of the same molecule?
The value was 60 g and 90 g and 170 g and 100 g (2×) and 80 g and 150 g and 70 g.

And the “Force (g) applied to the inflamed (right) paw, mean” value ([1]; 50 mg/kg sc, 4 h, n=8)?
Its value is 102.5 g.

What about the “Force (g) applied to the untreated (left) paw, mean” value ([1]; 50 mg/kg sc, 4 h, n=8) of the same molecule?
The value was 135.0 g.

What about the “pressure required in the treated (right) paw at 15 minutes post-dose, in words” value ([1]; 15 minutes post-dose) of the same molecule?
Its value is “slight decrease”.

And the “pressure required to initiate a response in the treated (right) paw, in words” value ([1]; between 0.5 and 2 hours post-dose compared to pre-dose, time dependent)?
The value was “increase in pressure required to initiate a response”.

What about the “force applied to the untreated (left) paw, in words” value ([1]; throughout the data collection) of the same molecule?
Its value is “remained comparable to pre-dose”.

And the Signs of anesthesia (rats [2])?
The Signs of anesthesia was “reduced righting reflex, body tone, and ataxia up to 1 hour post-dose”.

And the “relief of evoked pain 24 hours after administration” value (rats [3])?
Its value is “no relief of evoked pain”.

What about the “Number of acetic acid-induced Abdominal Spasms, individual animals” value (male Sprague-Dawley rats [4]; 50 mg/kg sc, 1 hour after ketamine, animals R0201-R0206) of the same molecule?
Its value is 0 and 4 and 3 and 5 and 1 and 8.

And the “reduction of elicited spasms from baseline values” (male Sprague-Dawley rats [4]; ketamine infusion versus baseline of 29/25 min)?
The value was 86%.

What about the “number of elicited spasms, average” value (male Sprague-Dawley rats [4]; ketamine infusion, baseline 29/25 min) of the same molecule?
Its value is 4 /25 min.

What about the “relation of adverse effects (euthanized animals, necropsy) to the test article” value (Gottingen Minipigs) of the same molecule?
Its value is “not test article related”.

What about the half-life ([5]; 8 mg/kg) of the same molecule?
Its half-life is 5.76 h.

What about the half-life ([5]; 12 mg/kg) of the same molecule?
The half-life was 5 h.

What about the half-life ([5]; 18 mg/kg) of the same molecule?
Its half-life is 3.12 h.

What about the “mean concentration values measurable through (post the start of infusion)” value ([5]; Phase 1) of the same molecule?
Its value is 12 h.

And the “mean Css” value ([5]; Phase 5: 18 mg/kg, 1 mg/kg/hr, 18-hour SC infusion)?
The value was 700 ng/mL.

And the “steady-state, in words” value ([5]; Phases 1 through 4)?
The value was “did not appear to reach a steady-state”.

What about the “mean concentration values measurable through (post the start of infusion)” value ([5]; Phases 3 through 5) of the same molecule?
Its value is 24 h.

And the “time to detectible plasma ketamine levels after initiating subcutaneous infusion” value ([5]; all animals)?
Its value is ≤ 5 min.

What about the “exposure to ketamine against dose level” value ([5]; dose level from 4 to 18 mg/kg) of the same molecule?
Its value is “generally increased with the increase in dose level”.

And the Tmax ([5]; female, 18 mg/kg, Phases 4 and 5: 18 mg/kg, 1 mg/kg/hr, 18-hour SC infusion, female)?
Its Tmax is 13.5 h.

And the Tmax ([5]; male, 8 mg/kg, Phase 2: 8 mg/kg, 1 mg/kg/hr, 8-hour SC infusion, males)?
The Tmax was 4.5 h.

And the Tmax ([5]; male, 12 mg/kg, Phase 3: 12 mg/kg, 1.5 mg/kg/hr, 8-hour SC infusion, males)?
Its Tmax is 2.04 h.

What about the “dose proportionality of the increases in mean Cmax and AUC0-24” value ([5]; males, dose level from 4 to 8 mg/kg) of the same molecule?
Its value is “less than dose proportional”.

What about the “dose proportionality of the increases in mean Cmax and AUC0-24” value ([5]; males, dose level from 8 to 12 mg/kg) of the same molecule?
The value was “greater than dose proportional”.

What about the “Time (s) taken for response, individual animals” value (male Sprague-Dawley rats [6]) of the same molecule?
Its value is 4.2 s (2×) and 5.2 s (3×) and 5.9 s and 5.1 s and 7.7 s and 6.2 s (2×) and 4.4 s and 7.0 s and 7.5 s and 5.5 s and 6.4 s (2×) and 7.4 s (3×) and 6.5 s (2×) and 3.5 s and 5.8 s (3×) and 4.3 s and 4.9 s and 6.1 s and 5.7 s and 7.6 s.

What about the “Time (s) taken for response, mean” value (male Sprague-Dawley rats [6]) of the same molecule?
Its value is 5.6 s and 5.9 s and 6.3 s.

What about the “group mean reaction time (longest)” value (male Sprague-Dawley rats [6]) of the same molecule?
Its value is 6.3 s.

And the “group mean reaction time (shortest)” value (male Sprague-Dawley rats [6])?
The value was 5.6 s.

And the “latency of tail flick, in words” value (male Sprague-Dawley rats [6])?
Its value is “slight increase in latency of tail flick at all post-dose time points”.

What about the “magnitude of the increase in time taken for pain to be perceived” value (male Sprague-Dawley rats [6]) of the same molecule?
The value was 1.1 s.

What about the “maximum effect, increase in time to tail flick” value (male Sprague-Dawley rats [6]) of the same molecule?
Its value is 21.4%.
